From US4710572A, “Histamine H1 antagonists” (American Home Products Corporation, priority 1986, dated 1987)
Where two headings read alike, the source gives them in different places.

What was measured:
histamine H1 [1] = target: T1, histamine H1 (Cavia porcellus, UniProt P31389); assay: Drugs vs. histamine at 1 × 10^-6 M in guinea pig terminal ileum, comparison with -383 analogues; format: cell-based; design: A section of terminal ileum was removed and suspended in aerated 37° C; Tyrodes solution; from tissue; host or cells: terminal ileum of male Hartley guinea pigs
Source text: Tyrodes solution. […] Tissues were washed several times before repeating the procedure for the next concentration. A different set of 4 tissues was used for each drug.

[2] = system: histamine-induced paw edema formation; assay: Histamine-induced paw edema formation; settings: in vivo
histamine H1 [3] = target: T1, histamine H1; assay: Histamine-induced contraction of isolated guinea pig ileum, single drug concentration; format: cell-based; design: A section of terminal ileum was removed and suspended in aerated 37° C; Tyrodes solution; from tissue; host or cells: terminal ileum of male Hartley guinea pigs; settings: histamine 1×10^-7 M; test drug 1×10^-6 M
Procedure: Fresh segments of terminal ileum immediately proximal to Peyer's patch, obtained from male Buckshire guinea pigs, were suspended in 37° C. Tyrode's solution in a tissue bath and aerated. The tissue segments were placed under one gram tension and allowed to equilibrate for one hour. Histamine was added to each tissue bath to a final concentration of 1×10^-7 M. The response was noted as grams tension. Test drug was added, in the presence of histamine, to each bath to a final concentration of 1×10^-6 M. The change in grams tension was noted and the percent reduction in grams tension calculated.

[4] = Modified Geller-Seifter experimentally-induced conflict test; settings: in vivo
[5] = system: limbic D2 dopamine receptor; assay: Limbic D2 dopamine receptor binding (Fields et al.); settings: at 1 μM
histamine H1 [6] = target: T1, histamine H1; assay: cell-based
Procedure: Subsequently, additional characterization of the compound herein exemplified was carried out in which complete histamine dose response curves were constructed first in the absence of test drug and then repeated in the presence of test drug at a specified concentration. A single experiment of this type allowed calculation of a pKB value from the rightward shift induced by the drug in the histaminic dose response curve, while three such experiments (at three different drug concentrations) allowed calculation of a pA2 value.

[7] = system: histamine-induced wheal formation in guinea pig skin; assay: Histamine-induced wheal formation in guinea pig skin; format: in vivo
[8] = system: histamine-induced changes in bronchopulmonary parameters; assay: Reversal of histamine-induced changes in bronchopulmonary parameters in the anesthetized guinea pig; format: in vivo
[9] = Conditioned avoidance (shelf-jump), Herman et al.; format: in vivo; settings: 40 mg/kg
[10] = Confinement motor activity, Tedeschi et al.; format: in vivo; settings: 5 and 10 mg/kg i.p.
[11] = system: histamine-induced deaths in guinea pigs; assay: Inhibition of histamine-induced deaths in guinea pigs; format: in vivo, guinea pig
Procedure: The compound exemplified herein, after a one hour pretreatment period, inhibited histamine-induced deaths in guinea pigs over the range of 1-5 mg/kg, with 100 percent effectiveness at the latter dose. At 18 hours post drug treatment the test compound retained 40 percent effectiveness at 10 mg/kg.

[12] = guinea pig ileum, histamine 1 × 10^-6 M, calculated from the table data, read-out: IC50 (inhibitory concentration50)

T1 sequence (P31389 whole entry): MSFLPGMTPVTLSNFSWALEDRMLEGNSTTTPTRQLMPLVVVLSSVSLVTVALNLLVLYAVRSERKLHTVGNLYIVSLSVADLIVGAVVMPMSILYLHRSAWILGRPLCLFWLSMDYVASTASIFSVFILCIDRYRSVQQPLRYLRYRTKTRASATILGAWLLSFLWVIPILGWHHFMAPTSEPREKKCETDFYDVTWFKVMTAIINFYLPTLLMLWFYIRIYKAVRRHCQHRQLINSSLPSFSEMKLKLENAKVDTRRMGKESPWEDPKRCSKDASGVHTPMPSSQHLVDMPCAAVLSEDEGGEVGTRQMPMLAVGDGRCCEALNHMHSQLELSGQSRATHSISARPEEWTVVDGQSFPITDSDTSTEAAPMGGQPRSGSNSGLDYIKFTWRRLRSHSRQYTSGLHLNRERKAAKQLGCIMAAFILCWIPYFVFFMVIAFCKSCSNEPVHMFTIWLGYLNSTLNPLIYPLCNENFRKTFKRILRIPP

Structure (SMILES)	IC50 (histamine H1 [1]; [12]) [nM]	inhibition of histamine-induced paw edema formation [2]	antagonist action against the histamine-induced contractile response in the isolated guinea pig ileum (histamine H1 [3])	effect in modified Geller-Seifter conflict test [4]	inhibition of limbic D2 dopamine receptor binding [5] [%]	Kb (histamine H1 [6]) [nM]	type of antagonism (shift of histamine dose response curve) (histamine H1 [6]; isolated guinea pig ileum)	potency relative to terfenadine (histamine H1 [6]; vs terfenadine)	effectiveness against wheal formation ([7]; 1.7 mg/kg, 18 hour pretreatment)	suppression of wheal formation ([7]; highest dose (2.1 mg/kg), one hour pretreatment)	reversal of histamine-induced changes in bronchopulmonary parameters [8]	conditioned avoidance (shelf-jump) activity [9]	sedative effect in confinement motor activity [10]	effectiveness in inhibition of histamine-induced deaths ([11]; 5 mg/kg, one hour pretreatment) [%]	effectiveness in inhibition of histamine-induced deaths ([11]; 10 mg/kg, 18 hours post drug treatment) [%]	IC50 (histamine H1 [1]) [nM]	potency relative to the -383 dichloro compound (histamine H1 [1]; ratio of IC50's)	potency relative to the -383 monochloro compound (histamine H1 [1]; ratio of IC50's) [times]
Cn1c(=O)c2c(ncn2CCCCN2CCN(C(c3ccc(Cl)cc3)c3ccc(Cl)cc3)CC2)n(C)c1=O [-383 Dichloro compound, 7-[4-[4-(4',4"-dichlorodiphenylmethyl)piperazinyl-(1)]-n-butyl]theophylline, reference compound]	790																	
Cn1c(=O)c2c(ncn2CCCN2CCN(C(c3ccccc3)c3ccc(Cl)cc3)CC2)n(C)c1=O (stereo not shown) [-383 Monochloro compound, 7-[3-[4-p-chlorobenzhydrylpiperazinyl-(1)]-n-propyl]-theophylline, reference compound]	370																	
Cn1c(=O)c2c(ncn2CCCN2CCN(C(c3ccc(F)cc3)c3ccc(F)cc3)CC2)n(C)c1=O [Difluoro compound, 7-[3-[4-bis(4-fluorophenyl)methyl]-1-piperazinyl]propyl-3,7-dihydro-1,3-dimethyl-1H-purine-2,6-dione]		inhibition of histamine-induced paw edema formation	potent, competitive antagonist action	mild stimulation	43	6.31	parallel rightward shifts with no decrease in the maximum response	about five times as potent as terfenadine	retained maximal effectiveness	Maximum suppression of wheal formation	reversal of histamine-induced changes in bronchopulmonary parameters	inactive	no sedative effect	100	40	38	about 21 times	10
